Measured values reported in patent publication US4463171A, “Derivatives of macrolide antibiotics” (Sanraku-Ocean Co., Ltd., priority 1982, dated 1984).
≈ marks a conversion by molar mass, not a printed value. Where two headings read alike, the source gives them in different places.

Assays:
Test in all cases: Antibacterial activity (minimum inhibitory concentration), tube dilution method
Type in all cases: cell-based
[1] = system: Bacillus subtilis NRRL B558; settings: for MIC: Bacillus subtilis
Protocol: (§1) The antibacterial activities of some typical compounds of this invention were measured by a tube dilution method in a brain heart infusion broth (pH 7.5) as a culture medium.

[2] = system: Klebsiella pneumoniae PCI602
Protocol: as §1

[3] = system: Staphylococcus aureus 209P
Protocol: as §1

[4] = system: Staphylococcus aureus MS9861; settings: for MIC: Staphylococcus aureus
Protocol: as §1

[5] = NRRLB558, tube dilution method, brain heart infusion broth (pH 7.5), read-out: minimum inhibitory concentration, Bacillus subtilis NRRL B558
[6] = PCI602, tube dilution method, brain heart infusion broth (pH 7.5), read-out: minimum inhibitory concentration, Klebsiella pneumoniae PCI602
[7] = tube dilution method, brain heart infusion broth (pH 7.5), read-out: minimum inhibitory concentration, Staphylococcus aureus 209P
[8] = MS9861, tube dilution method, brain heart infusion broth (pH 7.5), read-out: minimum inhibitory concentration, Staphylococcus aureus MS9861
[9] = tube dilution method, brain heart infusion broth (pH 7.5)

| Compound | MIC [1, 5] [µg/mL] | MIC [2, 6] [µg/mL] | MIC [3, 7] [µg/mL] | MIC [4, 8] [µg/mL] | MIC ([1]; NRRLB558, pH 7.5, read-out: minimum inhibitory concentration, Bacillus subtilis NRRL B558, tube dilution method, brain heart infusion broth (pH 7.5)) [µg/mL] | minimum inhibitory concentration, Bacillus subtilis NRRL B558 [1, 9] [µg/mL] | MIC ([2]; PCI602, pH 7.5, read-out: minimum inhibitory concentration, Klebsiella pneumoniae PCI602) [µg/mL] | MIC ([3]; pH 7.5, read-out: minimum inhibitory concentration, Staphylococcus aureus 209P) [µg/mL] | MIC ([4]; MS9861, pH 7.5, read-out: minimum inhibitory concentration, Staphylococcus aureus MS9861, tube dilution method, brain heart infusion broth (pH 7.5)) [µg/mL] | minimum inhibitory concentration, Staphylococcus aureus MS9861 [4, 9] [µg/mL] |
| --- | --- | --- | --- | --- | --- | --- | --- | --- | --- | --- |
| CCC1OC(=O)CC(O)C(C)C(OC2OC(C)C(OC3CC(C)(O)C(OC(=O)CC(C)C)C(C)O3)C(N(C)C)C2O)C(CC=O)CC(C)C(=O)C=CC(C)=CC1CSc1ccccc1 (stereo not drawn) [R1=H, R3=drawing 82, AR4=drawing 83] | 3.1 (≈ 3.38 µM) | > 100 | 3.1 (≈ 3.38 µM) | 6.3 (≈ 6.86 µM) | – | – | – | – | – | – |
| CCC1OC(=O)CC(O)C(C)C(OC2OC(C)C(OC3CC(C)(OC(C)=O)C(OC(=O)CC(C)C)C(C)O3)C(N(C)C)C2O)C(CC=O)CC(C)C(=O)C=CC(C)=CC1CO (stereo not drawn) [(R2)=COCH3, R3=drawing 66, AR4=OH, 3"-O-acetyl-4"-O-isovaleryl-YO-9010] | 0.4 (≈ 0.461 µM) | > 100 | 0.8 (≈ 0.922 µM) | 3.1 (≈ 3.57 µM) | – | – | – | – | – | – |
| CCC1OC(=O)CC(O)C(C)C(OC2OC(C)C(OC3CC(C)(O)C(O)C(C)O3)C(N(C)C)C2O)C(CC=O)CC(C)C(=O)C=CC(C)=CC1CSc1ccccc1 (stereo not drawn) [R1=H, R3=H, AR4=drawing 80] | < 0.2 | 25 (≈ 30 µM) | < 0.2 | 1.6 (≈ 1.92 µM) | – | – | – | – | – | – |
| CCC1OC(=O)CC(O)C(C)C(OC2OC(C)C(OC3CC(C)(O)C(O)C(C)O3)C(N(C)C)C2O)C(CC=O)CC(C)C(=O)C=CC(C)=CC1CSc1nnnn1C (stereo not drawn) [R1=H, R3=H, AR4=drawing 81] | < 0.2 | 12.5 (≈ 14.9 µM) | 0.8 (≈ 0.952 µM) | 3.1 (≈ 3.69 µM) | – | – | – | – | – | – |
| CCC1OC(=O)CC(O)C(C)C(OC2OC(C)C(OC3CC(C)(O)C(OC(=O)CC(C)C)C(C)O3)C(N(C)C)C2O)C(CC=O)CC(C)C(=O)C=CC(C)=CC1COC(=O)CC(C)C (stereo not drawn) [R1=H, R3=drawing 77, AR4=drawing 78] | 0.8 (≈ 0.879 µM) | 6.3 (≈ 6.92 µM) | 1.6 (≈ 1.76 µM) | 12.5 (≈ 13.7 µM) | – | – | – | – | – | – |
| CCC1OC(=O)CC(O)C(C)C(OC2OC(C)C(OC3CC(C)(O)C(OC(=O)CC(C)C)C(C)O3)C(N(C)C)C2O)C(CC=O)CC(C)C(=O)C=CC(C)=CC1COC(C)=O (stereo not drawn) [R1=H, R3=drawing 75, AR4=OCOCH3, 23-O-Acetyl-4"-O-isovaleryl-YO-9010] | 1.6 (≈ 1.84 µM) | 3.1 (≈ 3.57 µM) | 0.8 (≈ 0.922 µM) | 6.3 (≈ 7.26 µM) | – | – | – | – | – | – |
| CCC1OC(=O)CC(O)C(C)C(OC2OC(C)C(OC3CC(C)(O)C(O)C(C)O3)C(N(C)C)C2O)C(CC=O)CC(C)C(=O)C=CC(C)=CC1COC(=O)C(O)c1ccccc1 (stereo not drawn) [R1=H, R3=H, AR4=drawing 73] | < 0.2 | 12.5 (≈ 14.3 µM) | 0.4 (≈ 0.457 µM) | 1.6 (≈ 1.83 µM) | – | – | – | – | – | – |
| CCC1OC(=O)CC(O)C(C)C(OC2OC(C)C(OC3CC(C)(O)C(O)C(C)O3)C(N(C)C)C2O)C(CC=O)CC(C)C(=O)C=CC(C)=CC1COC(=O)C(NSc1ccccc1[N+](=O)[O-])c1ccccc1 (stereo not drawn) [R1=H, R3=H, AR4=drawing 74] | 0.8 (≈ 0.778 µM) | 3.1 (≈ 3.01 µM) | 0.8 (≈ 0.778 µM) | 3.1 (≈ 3.01 µM) | – | – | – | – | – | – |
| CCC1OC(=O)CC(O)C(C)C(OC2OC(C)C(OC3CC(C)(O)C(O)C(C)O3)C(N(C)C)C2O)C(CC=O)CC(C)C(=O)C=CC(C)=CC1COC1CCCCO1 (stereo not drawn) [R1=H, R3=H, AR4=drawing 84] | 0.8 (≈ 0.968 µM) | 12.5 (≈ 15.1 µM) | 0.8 (≈ 0.968 µM) | 3.1 (≈ 3.75 µM) | – | – | – | – | – | – |
| CCC1OC(=O)CC(O)C(C)C(OC2OC(C)C(OC3CC(C)(O)C(O)C(C)O3)C(N(C)C)C2O)C(CC=O)CC(C)C(=O)C=CC(C)=CC1CI (stereo not drawn) [R1=H, R3=H, AR4=I, 23-Deoxy-23-iodo-YO-9010] | < 0.2 | 6.3 (≈ 7.4 µM) | 0.4 (≈ 0.47 µM) | 3.1 (≈ 3.64 µM) | – | – | – | – | – | – |
| CCC1OC(=O)CC(O)C(C)C(OC2OC(C)C(OC3CC(C)(O)C(OC(=O)CSc4ccccc4)C(C)O3)C(N(C)C)C2O)C(CC=O)CC(C)C(=O)C=CC(C)=CC1CO (stereo not drawn) [R1=H, R3=drawing 67, AR4=OH] | < 0.2 | 3.1 (≈ 3.47 µM) | 0.4 (≈ 0.448 µM) | 3.1 (≈ 3.47 µM) | – | – | – | – | – | – |
| CCC1OC(=O)CC(O)C(C)C(OC2OC(C)C(OC3CC(C)(O)C(OC(=O)CSc4ccccc4)C(C)O3)C(N(C)C)C2O)C(CC=O)CC(C)C(=O)C=CC(C)=CC1COC(C)=O (stereo not drawn) [R1=H, R3=drawing 76, AR4=OCOCH3] | 0.2 (≈ 0.214 µM) | 100 (≈ 107 µM) | 0.8 (≈ 0.856 µM) | 1.6 (≈ 1.71 µM) | – | – | – | – | – | – |
| CCC1OC(=O)CC(O)C(C)C(OC2OC(C)C(OC3CC(C)(O)C(O)C(C)O3)C(N(C)C)C2O)C(CC=O)CC(C)C(=O)C=CC(C)=CC1COC(=O)CSc1ccncc1 (stereo not drawn) [R1=H, R3=H, AR4=drawing 72] | < 0.2 | 12.5 (≈ 14 µM) | 0.8 (≈ 0.896 µM) | 3.1 (≈ 3.47 µM) | – | – | – | – | – | – |
| CCC1OC(=O)CC(OC(C)=O)C(C)C(OC2OC(C)C(OC3CC(C)(O)C(OC(=O)CC(C)C)C(C)O3)C(N(C)C)C2O)C(CC=O)CC(C)C(=O)C=CC(C)=CC1CO (stereo not drawn) [N-1 substance, 3-O-acetyl-4"-O-isovaleryl-YO-9010, reference compound] | 0.8 (≈ 0.922 µM) | 3.1 (≈ 3.57 µM) | 0.4 (≈ 0.461 µM) | 1.6 (≈ 1.84 µM) | – | – | – | – | – | – |
| CCC1OC(=O)CC(O)C(C)C(OC2OC(C)C(OC3CC(C)(O)C(O)C(C)O3)C(N(C)C)C2O)C(CC=O)CC(C)C(=O)C=CC(C)=CC1CSC (stereo not drawn) [R1=H, R3=H, AR4=SCH3, 23-Deoxy-23-methylthio-YO-9010] | 0.8 (≈ 1.04 µM) | 6.3 (≈ 8.16 µM) | 0.8 (≈ 1.04 µM) | 1.6 (≈ 2.07 µM) | – | – | – | – | – | – |
| CCC1OC(=O)CC(O)C(C)C(OC2OC(C)C(OC3CC(C)(O)C(OC(=O)CC(C)C)C(C)O3)C(N(C)C)C2O)C(CC=O)CC(C)C(=O)C=CC(C)=CC1CBr (stereo not drawn) [R1=H, R3=drawing 68, AR4=Br, 23-Deoxy-23-bromo-4"-O-isovaleryl-YO-9010] | 0.4 (≈ 0.45 µM) | 6.3 (≈ 7.09 µM) | 0.8 (≈ 0.9 µM) | 1.6 (≈ 1.8 µM) | – | – | – | – | – | – |
| CCC1OC(=O)CC(O)C(C)C(OC2OC(C)C(OC3CC(C)(O)C(O)C(C)O3)C(N(C)C)C2O)C(CC=O)CC(C)C(=O)C=CC(C)=CC1CO (stereo not drawn) [Antibiotic YO9010, 23-demycinosyltylosin, reference compound] | 1.6 (≈ 2.16 µM) | 12.5 (≈ 16.8 µM) | 0.8 (≈ 1.08 µM) | 3.1 (≈ 4.18 µM) | – | – | – | – | – | – |
| CCC1OC(=O)CC(O)C(C)C(OC2OC(C)C(OC3CC(C)(O)C(O)C(C)O3)C(N(C)C)C2O)C(CC=O)CC(C)C(=O)C=CC(C)=CC1COS(=O)(=O)c1ccc(C)cc1 (stereo not drawn) [R1=H, R3=H, AR4=drawing 79] | 0.4 (≈ 0.446 µM) | 25 (≈ 27.9 µM) | 0.8 (≈ 0.893 µM) | 6.3 (≈ 7.03 µM) | – | – | – | – | – | – |
| CCC1OC(=O)CC(O)C(C)C(OC2OC(C)C(OC3CC(C)(O)C(OC(C)=O)C(C)O3)C(N(C)C)C2O)C(CC=O)CC(C)C(=O)C=CC(C)=CC1CO (stereo not drawn) [R1=H, R3=COCH3, AR4=OH] | 1.6 (≈ 2.04 µM) | 3.1 (≈ 3.95 µM) | 1.6 (≈ 2.04 µM) | 25 (≈ 31.9 µM) | – | – | – | – | – | – |
| CCC1OC(=O)CC(O)C(C)C(OC2OC(C)C(OC3CC(C)(O)C(OC(=O)CSc4ccncc4)C(C)O3)C(N(C)C)C2O)C(CC=O)CC(C)C(=O)C=CC(C)=CC1CBr (stereo not drawn) [R1=H, R3=drawing 70, AR4=Br] | < 0.2 | 12.5 (≈ 13.1 µM) | 0.2 (≈ 0.209 µM) | 0.8 (≈ 0.837 µM) | – | – | – | – | – | – |
| CCC1OC(=O)CC(O)C(C)C(OC2OC(C)C(OC3CC(C)(O)C(O)C(C)O3)C(N(C)C)C2O)C(CC=O)CC(C)C(=O)C=CC(C)=CC1COC(=O)Cc1ccccc1 (stereo not drawn) [R1=H, R3=H, AR4=drawing 71] | – | – | – | – | < 0.2 | 0.4 (≈ 0.465 µM) | 6.3 (≈ 7.33 µM) | 0.4 (≈ 0.465 µM) | 1.6 (≈ 1.86 µM) | 3.1 (≈ 3.6 µM) |
| CCC1OC(=O)CC(OC(C)=O)C(C)C(OC2OC(C)C(OC3CC(C)(O)C(OC(=O)CC(C)C)C(C)O3)C(N(C)C)C2O)C(CC=O)CC(C)C(=O)C=CC(C)=CC1CBr (stereo not drawn) [R1=COCH3, R3=drawing 68, AR4=Br, 3-O-Acetyl-23-deoxy-23-bromo-4"-O-isovaleryl-YO-9010] | 1.6 (≈ 1.72 µM) | > 100 | 1.6 (≈ 1.72 µM) | 3.1 (≈ 3.33 µM) | – | – | – | – | – | – |
